Counter-ions that a name gives are not always drawn.
Test: CaOx crystallization inhibition assay in human urine, pH 6.2
Details: human urine pH 6.2, 1 mM sodium oxalate, 7 h, light microscopy
Description: For comparison of the compounds' efficacy to inhibit calcium oxalate (CaOx) crystallization a simple in vitro assay in urine was used. In brief, human urine (pH 6.2) was mixed with compound, followed by the addition of 1 mM sodium oxalate inducing CaOx crystallization. After 7 hours of incubation at room temperature crystallization was measured by light microscopy, employing an automated image analysis to detect, classify and quantify the CaOx crystal types formed, namely CaOx monohydrate (COM) and CaOx dihydrate (COD).
Human urine was stored at −20° C. in 50 mL aliquots. After thawing, aliquots were centrifuged, filtered using a 0.45-μm syringe filter and pH set to 6.2. Oxalate concentrations of human urine samples were determined using the Oxalate Assay kit following the kit protocol, and found to be <100 μM for the samples used. Dilutions of sodium and compounds were prepared in Bis Tris buffer (50 mM, 150 mM NaCl, pH 6.2). Urine was mixed with compound in Eppendorf tubes, and subsequently sodium oxalate was added. The final assay mixture of 1 mL total volume contained 90% urine, 5% sodium oxalate (1 mM) and 5% compound dilution. Immediately upon sodium oxalate addition, the final assay mixture was vortexed and added to the imaging slide (8 well glass bottom chamber, ibidi). 400 μL per well were added and two wells for each sample were prepared. Crystallization was assessed after 7 h incubation at room temperature, using a Leica CTR6000 microscope (Leica Microsystems, Wetzlar, Germany) in brightfield mode. For visualization, images with a 40× objective were used. For quantification 2 wells/sample with five 20× objective images each were used. Without addition of sodium oxalate no crystallization was observed.
Quantification and classification of crystals was performed in Matlab (version R2016b or R2018b). In brief, crystals were segmented using edge detection and watershed algorithms and subsequently shape, intensity and texture features for each crystal were extracted. The extracted features served as input for a semi-supervised classification approach to distinguish COM (class 0), COD (class 1), not determined structures (class 2) and background noise (class 3). A cubic support vector machine (SVM) classifier was trained and subsequently used for classification of testing images.
All testing images were processed using the Batch Processing App. Efficacy of compounds to inhibit CaOx crystallization was compared by analysing the total area per field of view for each crystal type. The sum of the total area of the three crystal classes—COM, COD and unclassified, was normalized to the control within each experiment (N=3). Due to the inherent variability of the crystallization process itself, normalization within each experiment decreased the effect of inter-experimental variability.

| SMILES | 50% complete inhibition (<50% total area) [µM] | COM inhibition (<5% of total area) [µM] | Complete inhibition (i.e <5% total area) [µM] |
| --- | --- | --- | --- |
| O=P(O)(O)O[C@H]1[C@H](OP(=O)(O)O)[C@@H](OP(=O)(O)O)[C@H](OP(=O)(O)O)[C@@H](OP(=O)(O)O)[C@H]1OP(=O)(O)O [IP6, inositol hexaphosphate] | 30 | 3 | >30 |
| COCCOCCOCCOCCOCCOCCOCCOCCOCCOCCOCCO[C@@H]1[C@@H](OP(=O)(O)O)[C@H](OP(=O)(O)O)[C@@H](OP(=O)(O)O)[C@@H](OP(=O)(O)O)[C@H]1OP(=O)(O)O [OEG11-IP5] | 11 | 100 | >100 |
| O=C(O)CC(O)(CC(=O)O)C(=O)O [Citrate, Trisodium citrate dihydrate] | >100 | >100 | >100 |
| COCCOCCO[C@@H]1C(OP(=O)(O)O)[C@H](OCCOCCOC)[C@@H](OP(=O)(O)O)C(OP(=O)(O)O)[C@H]1OP(=O)(O)O (stereo partly drawn) [(OEG2)2-IP4] | >100 | >100 | >100 |
